Columns and labels:
[1] = tested on: HEF cells (primary human embryonic skin fibroblast), induced senescent with Etoposide; assay: in vitro killing of induced senescent HEF cells (CCK-8); type: cell-based
Source text: C. Comparison of the killing effects of three Bcl-xL inhibitors on the induced senescent HEF cell model. HEF represents the isolated early generation uninduced HEF cell group; and HEF-ETO represents the senescent HEF cell group induced with Etoposide (ETO) in vitro.
(§1) Induction of the Cellular Senescence

[2] = tested on: A549 cells (human non-small cell lung cancer cell), induced senescent with Cisplatin; assay: in vitro killing of induced senescent A549 cells (CCK-8); type: cell-based
Source text: A. The killing results of some selected compounds in the in vitro compound library screening on the induced senescent A549 cell model. Wherein, MZ-1, dBET6, ARV-825, I-BET726, I-BET151, and INCB057643 are all BET inhibitors; A1331852 and A1155463 are novel Bcl-xL inhibitors; Dasatinib, Quercetin, Fisetin, Curcumin are the familiar active drugs or natural products.
B. Comparison of the killing effects of three Bcl-xL inhibitors on the induced senescent A549 cell model. A549 represents the normal uninduced A549 cell group; and A549-CDDP represents the senescent A549 cell group induced with Cisplatin (CDDP) in vitro.
as §1

[3] = tested on: mouse model of Bleomycin-induced pulmonary fibrosis; assay: HE pathological changes in the lungs, Bleomycin-induced pulmonary fibrosis; type: in vivo, C57 mice; details: A13 2 mg/kg, A13bGa1 5 mg/kg; for inflammation and consolidation of the mouse lungs (HE pathology): i.p. four weeks, FIG. 5D and Table 1
Experimental: A. Modelling of a mouse model of Bleomycin-induced pulmonary fibrosis, and the schematic diagram of treatment. Mice were modelled with Bleomycin administered via tracheal instillation on day 0, and the treatment with intraperitoneal injection of the drug was started on day 4. The drug was administered for 3 consecutive days per week, followed by a 4-day withdrawal, for 4 weeks.
D. Representative results of HE and Masson staining of the pathological sections of lungs taken from different groups of mice after execution. Normal represents the saline tracheal instillation modelling control group; Vehicle represents the vehicle administration control group; A13bGa1 represents the prodrug treatment group; A13 represents the A1331852 treatment group. Scale bar: 500 μm.
All drugs were mixed in 85% physiological saline, 5% DMSO (Sigma, D8418) and 10% Solutol HS 15 (Sigma, 42966), and administered to mice by intraperitoneal (i.p.) injection. To treat the bleomycin-injured young mice, A13 (2 mg/kg), A13bGa1 (5 mg/kg), or an empty vehicle control was administered three consecutive days per week for four weeks. A1331852 (abbreviated as A13) was purchased from MCE.
Bleomycin-Induced Pulmonary Fibrosis
Bleomycin was purchased from Selleck. As previously reported (Bivas-Benita et al., Eur J Pharm Biopharm 61, 214-218 (2005)), a transtracheal injection of bleomycin (2 mg/kg) was performed to the young male C57 mice (8-10 weeks old) to induce lung fibrosis. Drug treatment was initiated four days after modelling, and the drug was administered three consecutive days per week for four consecutive weeks, after which the mice were executed for material collection.
Histopathological Examination
All animals (including those found dead, dying, and euthanised) were autopsied, and the lung tissues were preserved. The lungs were separated, the fat and other tissues were removed, the surface fluid was absorbed using a filter paper, and the whole lungs were weighed (those found dead, dying, and euthanised) for calculation of the lung weight index. The right lung and bronchiole were fixed in 10% neutral buffered formalin solution, embedded in paraffin, sectioned, prepared into slices, and stained with HE for a histopathological and morphological observation of the lung. The degree of the lesions such as the inflammatory cell infiltration in the lung tissue were graded according to a 4-grade classification (slight, mild, moderate, severe) using a standard terminology for diagnosis and classification. The left lung tissue was clipped and stored temporarily below −60′C.

[4] = tested on: platelets in peripheral blood; assay: in vivo platelet toxicity test, single intraperitoneal injection; design: species or system C57 mice; details: FIG. 4A
Source text: A. Results of the platelet counts in peripheral blood on days 1, 3, 5, 8, and 10 after a single intraperitoneal injection of different doses of the given drug. Each dot in the panel represents the count of platelets detected in 1 mouse at that time point (n=4 mice); A13 represents the parent compound A1331852 administration group, and A13bGa1 represents the prodrug obtained after the β-gal modification of A13, and mpk represents the milligram dose per kilogram of the body weight. There were three different dose groups of 2, 5, and 20 mg/kg for both A13 and A13bGa1 administration. The dashed line in the panel indicates the mean value of the platelet counts of the mice in the control single vehicle administration group.
In Vivo Platelet Toxicity Test
A single administration of A13 or A13bG was performed. Female 5-6 week old C57 mice were treated with a single intraperitoneal injection. A13 and A13bG were administered in three different dose groups of 2, 5, and 20 mg/kg. Approximately 50 μl of blood was collected from each mouse at different time points into the EDTA tubes (RAM Scientific) by means of inner canthal blood extraction, and analyzed using a haematology analyzer for a blood routine examination and a platelet counting. Multiple administrations of A13 or A13bG were performed. Female 5-6 week old C57 mice were treated with multiple intraperitoneal injections. A13 and A13bG were administered in three different dose groups of 2, 5 and 20 mg/kg, three consecutive days per week, followed by a 4-day withdrawal for 3 weeks. […]
For a blood routine examination, 50 μl of fresh blood was collected from each mouse and immediately mixed with EDTA. Blood samples were analyzed by Celltac Alpha MEK-6400 series haematology analyzer (Nihon Kohden, MEK-6400). Data were expressed as the number of different blood cells or platelets per μl of blood. […] A 200 μl of serum was aliquoted and analyzed for alanine aminotransferase (ALT), aspartate aminotransferase (AST), uric acid (UA), and creatinine (CREA) by a chemistry analyzer (Mindray, BS-350E).

[5] = tested on: senescent cells (HEF, HELF, A549, MRC5, BJ, HUVEC); assay: in vitro killing of senescent cells, multiple cell models (CCK-8); type: cell-based, human; details: FIG. 3B-3G
Source text: as §1

[6] = single intraperitoneal administration, 2, 5, 20 mg/kg

Cc1c(-c2ccc(N3CCc4cccc(C(=O)Nc5nc6ccccc6s5)c4C3)nc2C(=O)O)cnn1CC12CC3CC(CC(C3)C1)C2 [Compound A13, 3-[1-(adamantan-1-ylmethyl)-5-methylpyrazol-4-yl]-6-{8-[(1,3-benzothiazol-2-yl)carbamoyl]-3,4-dihydro-1H-isoquinolin-2-yl}pyridine-2-carboxylic acid]
selective killing effect on the senescent cells ([1]; HEF-ETO vs HEF, FIG. 1C): selective killing effect on the senescent cells
selective killing effect on the senescent cells ([2]; A549-CDDP vs A549, FIG. 1B): selective killing effect on the senescent cells
senescent cell killing activity and selectivity, compound screening ([2]; induced senescent A549 cell model, FIG. 1A): good senescent cell killing activity and selectivity in vitro
inflammation and consolidation of the mouse lungs (HE pathology) [3]: no improvement

Cc1c(-c2ccc(N3CCc4cccc(C(=O)Nc5nc6ccccc6s5)c4C3)nc2C(=O)OCc2ccc(O[C@@H]3O[C@H](CO)[C@H](O)[C@H](O)[C@H]3O)c([N+](=O)[O-])c2)cnn1CC12CC3CC(CC(C3)C1)C2 [Compound A13bGa1]
platelet toxicity compared with the parent compound A13 [4, 6]: significantly less toxic to the platelets than the parent compound A13
platelet-destroying effect [4, 6]: strong platelet-destroying effect only at the higher dose of 20 mg/kg
effect on the magnitude of the platelet changes in peripheral blood compared with A13 ([4]; single intraperitoneal administration): significantly less than that of A13
killing of the senescent cells, efficiency and selectivity ([1]; HEF cells, human skin-derived fibroblasts, FIG. 3B): highly efficient and selective in killing the senescent cells
killing of the senescent cells, efficiency and selectivity ([2]; A549 cells, lung-derived, FIG. 3E): highly efficient and selective in killing the senescent cells
inflammation and consolidation of the mouse lungs (HE pathology) [3]: significant improvement
Bleeding, alveolar/interstitial: mild (++) ([3]; of 6 animals): 0 number of animals
Bleeding, alveolar/interstitial: moderate (+++) ([3]; of 6 animals): 0 number of animals
Bleeding, alveolar/interstitial: negative (−) ([3]; of 6 animals): 3 number of animals
Bleeding, alveolar/interstitial: slight (+) ([3]; of 6 animals): 3 number of animals
Exudative oedema, alveolar: mild (++) ([3]; of 6 animals): 2 number of animals
Exudative oedema, alveolar: moderate (+++) ([3]; of 6 animals): 1 number of animals
Exudative oedema, alveolar: negative (−) ([3]; of 6 animals): 2 number of animals
Exudative oedema, alveolar: severe (++++) ([3]; of 6 animals): 0 number of animals
Exudative oedema, alveolar: slight (+) ([3]; of 6 animals): 1 number of animals
The infiltration of the inflammatory cells: mild (++) ([3]; of 6 animals): 0 number of animals
The infiltration of the inflammatory cells: moderate (+++) ([3]; of 6 animals): 1 number of animals
The infiltration of the inflammatory cells: negative (−) ([3]; of 6 animals): 4 number of animals
The infiltration of the inflammatory cells: slight (+) ([3]; of 6 animals): 1 number of animals
Thickening and consolidation of the pulmonary septum: mild (++) ([3]; of 6 animals): 5 number of animals
Thickening and consolidation of the pulmonary septum: moderate (+++) ([3]; of 6 animals): 0 number of animals
Thickening and consolidation of the pulmonary septum: negative (−) ([3]; of 6 animals): 1 number of animals
Thickening and consolidation of the pulmonary septum: severe (++++) ([3]; of 6 animals): 0 number of animals
Thickening and consolidation of the pulmonary septum: slight (+) ([3]; of 6 animals): 0 number of animals
overall killing activity on the senescent cells compared with the parent compound A13 [5]: somewhat reduced compared with that of the parent compound A13
